{"source": "patent US8017575B2", "about": "(priority 2004, dated 2011)", "key": {"[1]": {"system": "insulin sensitivity", "test": "Rapid Insulin Sensitivity Test (RIST) before/after hemorrhage to 50 mmHg (hemorrhage-induced HDIR)", "type": "in vivo, rat", "description": "(§1) Surgical Procedures: Male Sprague Dawley rats (Charles River, St. Constant, Quebec, Canada) were housed in climate-controlled conditions for at least 6 days prior to surgical preparation. The animals were fasted for 8 hours, and then allowed ad lib access to standard rat chow for 2 hours prior to surgical preparation. […] The animals were weighed and anesthetized by an intraperitoneal injection of pentobarbital sodium (65 mg/ml, Somnotol, Biomeda-MTC Animal Health Inc., Cambridge Canada). Temperature was monitored by a rectal thermometer and kept constant at 37.5±0.5° C. by a heated surgical table and an overhead lamp. […] Animals were heparinized (100 IU/kg). Blood samples were taken by puncturing the arterial side of the arterial-venous shunt. The infusion of pharmacological agents was done by puncturing and inserting an infusion line into the silicon sleeve of the venous side of the shunt. Arterial pressure was measured by clamping the silicon sleeve on the venous side of the shunt, and measuring pressure from a side branch. A tracheotomy was performed (Micro-Renathane Tubing (095), Braintree Scientific Inc.) The left jugular vein was then cannulated with PE60 tubing in order to allow for continuous supplemental anesthetic (sodium pentobarbital, 2.16 mg/ml saline) infusion at a rate of 0.5 ml/hr/100 g of body weight. An infusion line was inserted into a silicon sleeve on the jugular supplement line for glucose administration and was controlled by a variable infusion pump (Genie, Kent Scientific Corporation, Litchfield, Mass.). The cannulation of the femoral artery and vein, the tracheotomy and the jugular vein cannulation is the standard surgical preparation.\n(§2) After surgical completion, the animal was allowed to stabilize for 30 minutes, after which arterial blood samples (25 μl) were taken from the shunt and analyzed for blood glucose concentration using a glucose oxidase analyzer (Yellow Springs Instruments, Yellow Springs, Ohio). Samples were analyzed at five-minute intervals until 3 successive stable measurements were obtained. The mean of these 3 samples was used as the basal glucose level. […] At 45 seconds, a glucose infusion was initiated and adjusted to maintain euglycemia as determined by the basal glucose level. An arterial sample was taken from the arterial-venous shunt every 2 minutes during the RIST, and the glucose infusion was increased or decreased accordingly. […] The amount of glucose infused over the RIST (mg glucose/kg of body weight) is known as the RIST index.\n(§3) Following the standard surgical procedure described above, a control RIST was performed. The anesthetized animal was hemorrhaged to an arterial blood pressure of 50 mmHg and held at this pressure for a 10 minute interval, by withdrawing additional blood as needed. Blood was not returned. The animal was hemorrhaged from the arterial side of the shunt, using a 23-gauge needle attached to a syringe, at a rate of 0.5 ml/min. Arterial blood pressure was measured from the vascular shunt during brief occlusion of the venous side of the shunt. Following the hemorrhage, arterial blood glucose levels were measured until they became stable for at least 15 minutes and another RIST was performed.\nA control RIST was performed after a 30 minute stabilization period. […] A post hemorrhage RIST was then done as soon as a stable glycemic baseline had been established.\n(§4) Effect of Phentolamine on HDIR following Hemorrhage: Following a standard surgical preparation, a laparotomy and portal puncture was performed. After a 30 minute stabilization period, a control RIST was performed. Following the RIST, phentolamine (400 μg/kg/min-IPV, 10 minute infusion at a rate of 0.025 ml/min), or cyclosomatostatin (20 μg/kg/min-IPV, continuous infusion at a rate of 0.025 ml/min) was administered. The rat was restabilized and then hemorrhaged to an arterial blood pressure of 50 mmHg and held at this pressure for a ten-minute interval."}, "[2]": {"test": "Arterial blood glucose (glycemia) during drug infusion and hemorrhage", "type": "in vivo, rat", "description": "as §2, §3\nas §4, with “interval. […]” for “interval.”"}, "[3]": {"system": "beta receptors", "test": "Heart rate test of beta blockade (propranolol vs isoproterenol)", "type": "in vivo, rat", "description": "Identification of Blocking Dose of […]: A standard surgical preparation, laparotomy and portal vein puncture were performed on an anesthetized rat. […] (Heart rate was measured using a Grass AC/DC Strain gauge amplifier and National Instrument data acquisition software.) Following stabilization, isoproterenol (0.5 μg/kg/min-IV) was administered at a rate of 0.1 ml/min for 5 minutes. Heart rate and glucose levels were analyzed in the last 30 seconds of isoproterenol administration and 15 minutes subsequent to discontinuation of isoproterenol infusion."}, "[4]": {"system": "insulin sensitivity", "test": "RIST during somatostatin infusion (somatostatin-induced HDIR)", "type": "in vivo, rat", "description": "as §1, with “The cannulation of the femoral artery and vein, the tracheotomy and the jugular vein cannulation is the standard surgical preparation.” left out\nAfter surgical completion, the animal was allowed to stabilize for 30 minutes, after which arterial blood samples (25 μl) were taken from the shunt and analyzed for blood glucose concentration using a glucose oxidase analyzer (Yellow Springs Instruments, Yellow Springs, Ohio). Samples were analyzed at five-minute intervals until 3 successive stable measurements were obtained. […] At 45 seconds, a glucose infusion was initiated and adjusted to maintain euglycemia as determined by the basal glucose level. […]"}, "[5]": {"details": "for Volume of Distribution, Percent Change (reduction): SMA ligation vs control", "description": "Following the hemorrhage, another RIST was performed. […] The samples were centrifuged and the plasma was frozen immediately on dry ice, and stored at −80° C.\nA snare was inserted around the artery so that it could be occluded. The animal was allowed to rest for a 30 minute interval."}, "[6]": {"details": "SMA ligation series, SMA ligated"}, "[7]": {"details": "hemorrhage series, control, insulin 50 mU/kg 30 second bolus"}}, "note": "Values joined by “and” are separate entries in the source; they are usually repeats but may differ in a detail not shown here. Identical values can stand only once. Like-named read-outs stand apart in the source and are kept apart here."}
{"compound": "Cc1ccc(N(CC2=NCCN2)c2cccc(O)c2)cc1", "note": "[phentolamine]", "values": [{"measurement": "prevention of HDIR subsequent to hemorrhage", "setting": "[1]; Example 7: phentolamine 400 μg/kg/min-IPV", "result": "unable to prevent HDIR"}, {"measurement": "post hemorrhage RIST index", "setting": "[1]; Example 7: phentolamine 400 μg/kg/min-IPV prior to hemorrhage, control 213.1±8.4, n=7", "result": "145.4±9.2 mg of glucose/kg"}, {"measurement": "decrease in insulin sensitivity (RIST index) between control and post hemorrhage RIST", "setting": "[1]; Example 7: phentolamine 400 μg/kg/min-IPV prior to hemorrhage, n=7", "result": 31.8, "unit": "%"}, {"measurement": "decrease in insulin sensitivity (RIST index) between control and post hemorrhage RIST", "setting": "[1]; Example 7: phentolamine 400 μg/kg/min-IPV prior to hemorrhage, n=7, listed as Phentolamine", "result": "31.8% and 31.8±5.5%"}, {"measurement": "increase in glycemia during hemorrhage", "setting": "[2]; phentolamine 400 μg/kg/min-IPV prior to hemorrhage (18.2±4.2% without agents)", "result": "1.1±0.9% and 1.1%"}]}
{"compound": "CC(C)NCC(O)COc1cccc2ccccc12", "note": "(stereo not shown) [propranolol]", "values": [{"measurement": "prevention of HDIR subsequent to hemorrhage", "setting": "[1]; Example 8: propranolol 1.5 mg/kg-IPV", "result": "unable to prevent HDIR"}, {"measurement": "increase in glycemia following hemorrhage", "setting": "[2]; propranolol 1.5 mg/kg-IPV prior to hemorrhage", "result": "17.4±3.3% and 17.4%"}, {"measurement": "block of the acceleration in heart rate caused by isoproterenol", "setting": "[3]; propranolol 1.5 mg/kg", "result": "completely block"}, {"measurement": "reduction in basal heart rate", "setting": "[3]; propranolol 1.5 mg/kg-IPV", "result": "70.6±1.3", "unit": "beats/min"}]}
{"compound": "cyclosomatostatin", "values": [{"measurement": "post hemorrhage RIST index", "setting": "[1]; Example 9: cyclosomatostatin 20 μg/kg/min-IPV continuous, started prior to hemorrhage, initial RIST 214.3±8.8, n=5", "result": "217.5±8.5 mg of glucose/kg"}, {"measurement": "prevention of HDIR following hemorrhage", "setting": "[1]; Example 9: cyclosomatostatin 20 μg/kg/min-IPV prior to hemorrhage, n=5", "result": "prevented the occurrence of HDIR"}, {"measurement": "increase in glycemia following hemorrhage", "setting": "[2]; cyclosomatostatin 20 μg/kg/min-IPV, infused 67.2±4.8 minutes", "result": "19.9±2.0", "unit": "%"}, {"measurement": "prevention of somatostatin-induced HDIR", "setting": "[4]; Example 6: cyclosomatostatin 20 μg/kg/min-IPV continuous infusion, n=3", "result": "significantly prevented the occurrence of HDIR"}, {"measurement": "cyclosomatostatin and somatostatin RIST index", "setting": "[4]; Example 6: cyclosomatostatin 20 μg/kg/min-IPV with somatostatin 0.16 μg/kg/min, control 215.9±7.4, n=3", "result": "213.1±8.6 mg of glucose/kg"}, {"measurement": "blockade of somatostatin induced HDIR", "setting": "[4]; pilot studies, cyclosomatostatin 10 μg/kg/min", "result": "did not produce a full blockade"}]}
{"compound": "insulin: Human insulin (Humulin R) purchased from Eli Lilly", "values": [{"measurement": "Clearance", "setting": "[5]; [6]", "result": "0.667 ± 0.0167", "unit": "mL/min/kg"}, {"measurement": "Volume of Distribution", "setting": "[5]; [6]", "result": "0.03 ± 0.003", "unit": "L/kg"}, {"measurement": "Volume of Distribution, Percent Change (reduction)", "setting": "[5]", "result": "69.4±2.2", "unit": "%"}, {"measurement": "Volume of Distribution, Percent Change (reduction)", "setting": "[5]; listed as Insulin", "result": 69.39, "unit": "%"}, {"measurement": "insulin concentration at the 1 minute mark of the RIST", "setting": "[5]; after hemorrhage, n=4", "result": "27.5 ± 3.8", "unit": "µg/L"}, {"measurement": "time for insulin to decrease to baseline", "setting": "[5]; both control and hemorrhage RISTs, 30 second bolus 50 mU/kg", "result": 5, "unit": "min"}, {"measurement": "Clearance", "setting": "[5]; [7]", "result": "1.03 ± 0.15", "unit": "mL/min/kg"}, {"measurement": "Volume of Distribution", "setting": "[5]; [7]", "result": "0.056 ± 0.012", "unit": "L/kg"}]}
{"compound": "CC(C)NCC(O)c1ccc(O)c(O)c1", "note": "(stereo not shown) [isoproterenol]", "values": [{"measurement": "heart rate (remained at original baseline level)", "setting": "[3]; isoproterenol 0.5 μg/kg/min-IV subsequent to propranolol 1.5 mg/kg-IPV", "result": "415.3±5.9", "unit": "beats/min"}, {"measurement": "increase in basal heart rate", "setting": "[3]; isoproterenol alone", "result": "125.2±9.8", "unit": "beats/min"}]}
